Converted amounts (≈) assume the structure as drawn. The source made the active and inactive calls. No cut-off for these calls is given here.
What was measured:
Monilinia laxa [1] = assay: Fungicidal activity against Monilinia laxa isolate MLP4 assessed as reduction in mycelial growth rate at 1 to 10 ug/ml at 31 degC after 5 days; assay type: functional, organism-based
Monilinia laxa [2] = assay: Fungicidal activity against Monilinia laxa isolate MLK8 assessed as reduction in mycelial growth rate at 25 degC after 4 days; assay type: functional, organism-based; conditions: isolate MLK8, 96 h
Monilinia laxa [3] = assay: Fungicidal activity against Monilinia laxa isolate MLBO4 assessed as reduction in mycelial growth rate at 25 degC after 4 days; assay type: functional, organism-based; conditions: isolate MLBO4, 96 h
Monilinia laxa [4] = assay: Fungicidal activity against Monilinia laxa isolate MLG6 assessed as reduction in mycelial growth rate at 25 degC after 4 days; assay type: functional, organism-based; conditions: isolate MLG6, 96 h
Monilinia laxa [5] = assay: Fungicidal activity against Monilinia laxa isolate MLK1 assessed as virulence in prune fruits assessed as virulence treated 10 min prior to mycelial inoculation at 24 degC after 10 days relative to isolate MLX1by pathogenicity bioassay; assay type: functional
Monilinia laxa [6] = assay: Fungicidal activity against Monilinia laxa isolate MLBO5 assessed as virulence in prune fruits assessed as virulence treated 10 min prior to mycelial inoculation at 24 degC after 10 days relative to isolate MLX1by pathogenicity bioassay; assay type: functional
Monilinia laxa [7] = assay: Fungicidal activity against Monilinia laxa isolate MLNS1 assessed as reduction in mycelial growth rate at 1 to 10 ug/ml at 31 degC after 5 days; assay type: functional, organism-based
Monilinia laxa [8] = assay: Fungicidal activity against Monilinia laxa isolate MLBO1 assessed as reduction in mycelial growth rate at 25 degC after 4 days; assay type: functional, organism-based; conditions: isolate MLBO1, 96 h
Monilinia laxa [9] = assay: Fungicidal activity against Monilinia laxa isolate MLC1 assessed as reduction in mycelial growth rate at 1 to 10 ug/ml at 31 degC after 5 days; assay type: functional, organism-based
Monilinia laxa [10] = assay: Fungicidal activity against Monilinia laxa isolate MLG3 assessed as reduction in mycelial growth rate at 25 degC after 4 days; assay type: functional, organism-based; conditions: isolate MLG3, 96 h
Monilinia laxa [11] = assay: Fungicidal activity against Monilinia laxa isolate MLX3 assessed as reduction in mycelial growth rate at 1 to 10 ug/ml at 28 degC after 8 days; assay type: functional, organism-based
Monilinia laxa [12] = assay: Fungicidal activity against Monilinia laxa isolate MLC2 assessed as virulence in prune fruits assessed as virulence treated 10 min prior to mycelial inoculation at 24 degC after 10 days relative to isolate MLX1by pathogenicity bioassay; assay type: functional
Monilinia laxa [13] = assay: Fungicidal activity against Monilinia laxa isolate MLBO1 assessed as reduction in mycelial growth rate at 1 to 10 ug/ml at 31 degC after 5 days; assay type: functional, organism-based
Monilinia laxa [14] = assay: Fungicidal activity against Monilinia laxa isolate MLX5 assessed as reduction in mycelial growth rate at 25 degC after 4 days; assay type: functional, organism-based; conditions: isolate MLX5, 96 h
Monilinia laxa [15] = assay: Fungicidal activity against Monilinia laxa isolate MLX5 assessed as reduction in mycelial growth rate at 1 to 10 ug/ml at 25 to 28 degC; assay type: functional, organism-based
Monilinia laxa [16] = assay: Fungicidal activity against Monilinia laxa isolate MLNS2 assessed as reduction in mycelial growth rate at 1 to 10 ug/ml at 31 degC after 5 days; assay type: functional, organism-based
Monilinia laxa [17] = assay: Fungicidal activity against Monilinia laxa isolate MLK24 assessed as reduction in mycelial growth rate at 25 degC after 4 days; assay type: functional, organism-based; conditions: isolate MLK24, 96 h
Monilinia laxa [18] = assay: Fungicidal activity against Monilinia laxa isolate MLBO5 assessed as mean number of conidia produced in the colony at 25 degC after 12 days by haemocytometer; assay type: functional
Monilinia laxa [19] = assay: Fungicidal activity against Monilinia laxa isolate MLP2 assessed as virulence in prune fruits assessed as virulence treated 10 min prior to mycelial inoculation at 24 degC after 10 days relative to isolate MLX1by pathogenicity bioassay; assay type: functional
Monilinia laxa [20] = assay: Fungicidal activity against Monilinia laxa isolate MLC2 assessed as reduction in mycelial growth rate at 1 to 10 ug/ml at 31 degC after 5 days; assay type: functional, organism-based
Monilinia laxa [21] = assay: Fungicidal activity against Monilinia laxa isolate MLKS1 assessed as reduction in mycelial growth rate at 1 to 10 ug/ml at 31 degC after 5 days; assay type: functional, organism-based
Monilinia laxa [22] = assay: Fungicidal activity against Monilinia laxa isolate MLBO2 assessed as reduction in mycelial growth rate at 1 to 10 ug/ml at 31 degC after 5 days; assay type: functional, organism-based
Monilinia laxa [23] = assay: Fungicidal activity against Monilinia laxa isolate MLC2 assessed as mycelial growth at 1 ug/ml at 25 degC after 4 days; assay type: functional
Monilinia laxa [24] = assay: Fungicidal activity against Monilinia laxa isolate MLA1 assessed as mean mycelial colony diameter at 25 degC after 4 days; assay type: functional
Monilinia laxa [25] = assay: Fungicidal activity against Monilinia laxa isolate MLKS2 assessed as reduction in mycelial growth rate at 1 to 10 ug/ml at 31 degC after 5 days; assay type: functional, organism-based
Monilinia laxa [26] = assay: Fungicidal activity against Monilinia laxa isolate MLP4 assessed as reduction in mycelial growth rate at 25 degC after 4 days; assay type: functional, organism-based; conditions: isolate MLP4, 96 h
Monilinia laxa [27] = assay: Fungicidal activity against Monilinia laxa isolate MLK12 assessed as reduction in mycelial growth rate at 1 to 10 ug/ml at 28 degC after 8 days; assay type: functional, organism-based
Monilinia laxa [28] = assay: Fungicidal activity against Monilinia laxa isolate MLA1 assessed as reduction in mycelial growth rate at 25 degC after 4 days; assay type: functional, organism-based; conditions: isolate MLA1, 96 h
Monilinia laxa [29] = assay: Fungicidal activity against Monilinia laxa isolate MLC6 assessed as reduction in mycelial growth rate at 25 degC after 4 days; assay type: functional, organism-based; conditions: isolate MLC6, 96 h
Monilinia laxa [30] = assay: Fungicidal activity against Monilinia laxa isolate MLK12 assessed as reduction in mycelial growth rate at 1 to 10 ug/ml at 25 to 28 degC; assay type: functional, organism-based
Monilinia laxa [31] = assay: Fungicidal activity against Monilinia laxa isolate MLK6 assessed as reduction in mycelial growth rate at 1 to 10 ug/ml at 25 to 28 degC; assay type: functional, organism-based
Monilinia laxa [32] = assay: Fungicidal activity against Monilinia laxa isolate MLP2 assessed as reduction in mycelial growth rate at 25 degC after 4 days; assay type: functional, organism-based; conditions: isolate MLP2, 96 h
Monilinia laxa [33] = assay: Fungicidal activity against Monilinia laxa isolate KX4 assessed as reduction in mycelial growth rate at 25 degC after 4 days; assay type: functional, organism-based; conditions: isolate KX4, 96 h
Monilinia laxa [34] = assay: Fungicidal activity against Monilinia laxa isolate MLG4 assessed as reduction in mycelial growth rate at 25 degC after 4 days; assay type: functional, organism-based; conditions: isolate MLG4, 96 h
Monilinia laxa [35] = assay: Fungicidal activity against Monilinia laxa isolate MLC5 assessed as reduction in mycelial growth rate at 1 to 10 ug/ml at 31 degC after 5 days; assay type: functional, organism-based
Monilinia laxa [36] = assay: Fungicidal activity against Monilinia laxa isolate MLC2 assessed as mean number of conidia produced in the colony at 25 degC after 12 days by haemocytometer; assay type: functional
Monilinia laxa [37] = assay: Fungicidal activity against Monilinia laxa isolate MLK1 assessed as mean mycelial colony diameter at 25 degC after 4 days; assay type: functional
Monilinia laxa [38] = assay: Fungicidal activity against Monilinia laxa isolate MLBO8 assessed as reduction in mycelial growth rate at 1 to 10 ug/ml at 31 degC after 5 days; assay type: functional, organism-based
Monilinia laxa [39] = assay: Fungicidal activity against Monilinia laxa isolate MLNS2 assessed as reduction in mycelial growth rate at 1 to 10 ug/ml at 28 degC after 8 days; assay type: functional, organism-based
Monilinia laxa [40] = assay: Fungicidal activity against Monilinia laxa isolate B1 assessed as reduction in mycelial growth rate at 25 degC after 4 days; assay type: functional, organism-based; conditions: isolate B1, 96 h
Monilinia laxa [41] = assay: Fungicidal activity against Monilinia laxa isolate KX4 assessed as reduction in mycelial growth rate at 1 to 10 ug/ml at 28 degC after 8 days; assay type: functional, organism-based

## COC(=O)Nc1nc2ccccc2[nH]1 [CARBENDAZIM]
Monilinia laxa [1]
  inhibition: Active
Monilinia laxa [2]
  EC50: 0.09 µg/mL (≈ 0.471 µM)
Monilinia laxa [3]
  EC50: 0.05 µg/mL (≈ 0.262 µM)
Monilinia laxa [4]
  EC50: 0.12 µg/mL (≈ 0.628 µM)
Monilinia laxa [5]
  Activity: 97.77%
Monilinia laxa [6]
  Activity: 100%
Monilinia laxa [7]
  inhibition: Active
Monilinia laxa [8]
  EC50: 0.11 µg/mL (≈ 0.575 µM)
Monilinia laxa [9]
  inhibition: Active
Monilinia laxa [10]
  EC50: 0.08 µg/mL (≈ 0.418 µM)
Monilinia laxa [11]
  inhibition: inactive
Monilinia laxa [12]
  Activity: 98.52%
Monilinia laxa [13]
  inhibition: Active
Monilinia laxa [14]
  EC50: > 50 µg/mL
Monilinia laxa [15]
  inhibition: inactive
Monilinia laxa [16]
  inhibition: Active
Monilinia laxa [17]
  EC50: 0.02 µg/mL (≈ 0.105 µM)
Monilinia laxa [18]
  Activity: 3.92 /cm2
Monilinia laxa [19]
  Activity: 87.37%
Monilinia laxa [20]
  inhibition: Active
Monilinia laxa [21]
  inhibition: Active
Monilinia laxa [22]
  inhibition: Active
Monilinia laxa [23]
  Activity: 98.28%
Monilinia laxa [24]
  Activity: 27.1 mm
Monilinia laxa [25]
  inhibition: Active
Monilinia laxa [26]
  EC50: > 50 µg/mL
Monilinia laxa [27]
  inhibition: inactive
Monilinia laxa [28]
  EC50: 0.06 µg/mL (≈ 0.314 µM)
Monilinia laxa [29]
  EC50: 0.12 µg/mL (≈ 0.628 µM)
Monilinia laxa [30]
  inhibition: inactive
Monilinia laxa [31]
  inhibition: inactive
Monilinia laxa [32]
  EC50: 0.06 µg/mL (≈ 0.314 µM)
Monilinia laxa [33]
  EC50: > 50 µg/mL
Monilinia laxa [34]
  EC50: 0.11 µg/mL (≈ 0.575 µM)
Monilinia laxa [35]
  inhibition: Active
Monilinia laxa [36]
  Activity: 5 /cm2
Monilinia laxa [37]
  Activity: 30.55 mm
Monilinia laxa [38]
  inhibition: Active
Monilinia laxa [39]
  inhibition: inactive
Monilinia laxa [40]
  EC50: > 50 µg/mL
Monilinia laxa [41]
  inhibition: inactive
